# Measured values published in BindingDB's records for doi:10.1021/acschembio.7b00124 (University of Helsinki, 2017).
# Where a SMILES comes first, the peptide text is derived from it. Bridges are numbered along the chain shown (N, C = ends). [ ]: non-standard residue; d: D form. ξ: configuration not given here. Thr(3ξ) = CC(O)[C@H](N)C(=O)O; hLys = NCCCCC[C@H](N)C(=O)O
# Legend:
# Serine protease 1 = biological target: T1, Serine protease 1 (Bos taurus, UniProt P00760); experiment: Protease Inhibition Assays; conditions: 37 °C
# T1 sequence (P00760 whole entry): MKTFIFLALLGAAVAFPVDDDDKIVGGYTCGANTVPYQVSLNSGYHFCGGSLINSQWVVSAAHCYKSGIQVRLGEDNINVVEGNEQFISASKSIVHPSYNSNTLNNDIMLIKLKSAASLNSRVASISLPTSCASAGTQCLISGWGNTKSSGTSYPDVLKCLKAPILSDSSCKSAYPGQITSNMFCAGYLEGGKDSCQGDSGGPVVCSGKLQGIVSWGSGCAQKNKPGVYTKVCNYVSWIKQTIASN
# Procedure: (§1) The inhibition assays were performed in 96-well microtiter plates as follows: 30 uL of the enzyme solution (trypsin [100 ug/mL] or elastase [1.5 U/mL]) and 60 uL of the buffer (50 mM Tris-HCl, 20 mM CaCl2 at pH 7.5) were pipetted into a series of six wells. A total of 10 uL of a 2000 uM peptide solution (microviridin variant) was then added to well 1 and serially diluted up to well 5; well 6 was used as the control. After completing the serial dilution of the sample, 10 uL was taken from well 5 and discarded to maintain the same volume in all wells. The plates were then incubated for 5 min at 37 °C, and subsequently 90 uL of the substrate solution (trypsin assay, N-benzoyl-DL-arginine-4-nitroanilide hydrochloride (BAPNA) [2.17 mg mL-1]; elastase assay, succinyl-Ala-Ala-Ala-p-nitroanilide (Suc-ALA3-pNA) [1 mg mL-1]) was added to each well. The enzymatic activity was measured spectrophotometrically (Varioscan Flash, Thermo Scientific) at 410 nm after incubation at 37 °C for 15 m
# [1] = biological target: Chymotrypsin-like elastase family member 1 (Bos taurus, UniProt Q28153); experiment: Protease Inhibition Assays; conditions: 37 °C
# Chain of Chymotrypsin-like elastase family member 1 (Q28153 whole entry): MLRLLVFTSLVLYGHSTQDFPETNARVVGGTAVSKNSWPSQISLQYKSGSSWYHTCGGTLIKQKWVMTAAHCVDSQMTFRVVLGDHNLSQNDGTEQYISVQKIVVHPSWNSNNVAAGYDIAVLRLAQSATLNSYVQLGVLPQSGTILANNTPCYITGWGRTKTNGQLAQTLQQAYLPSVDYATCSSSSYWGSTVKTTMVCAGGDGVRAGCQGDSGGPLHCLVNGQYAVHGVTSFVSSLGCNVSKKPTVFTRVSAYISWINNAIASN
# Procedure: as §1
SMILES,IC50 (Serine protease 1),IC50 [1]
"CC(C)[C@H](NC(=O)[C@@H](N)[C@@H](C)O)C(=O)N[C@@H]1C(=O)N[C@@H](CCCNC(=N)N)C(=O)N[C@H]2CCCCNC(=O)C[C@@H](C(=O)N[C@@H](Cc3ccc(O)cc3)C(=O)O)NC(=O)[C@@H]3CCC(=O)OC[C@H](NC(=O)[C@@H]4CCCN4C(=O)[C@H](Cc4ccc(O)cc4)NC2=O)C(=O)N[C@@H](CC(=O)OC1C)C(=O)N[C@@H](Cc1c[nH]c2ccccc12)C(=O)N3 (some centres undefined) [MdnA3] (H-TV[Thr(3ξ)]RKYPSDWEDY-OH; ester 3-9, 8-11; lactam 5-12)",28.4 nM,
"CC(C)[C@H](NC(=O)[C@@H](N)Cc1ccc(O)cc1)C(=O)N[C@@H]1C(=O)N[C@@H](CCCCCN)C(=O)N[C@H]2CCCCNC(=O)CC[C@@H](C(=O)N[C@@H](Cc3ccc(O)cc3)C(=O)O)NC(=O)[C@@H]3CCC(=O)OC[C@H](NC(=O)[C@@H]4CCCN4C(=O)[C@H](Cc4ccc(O)cc4)NC2=O)C(=O)N[C@@H](CC(=O)OC1C)C(=O)N[C@@H](Cc1c[nH]c2ccccc12)C(=O)N3 (some centres undefined) [MdnA6] (H-YV[Thr(3ξ)][hLys]KYPSDWEEY-OH; ester 3-9, 8-11; lactam 5-12)",21.5 nM,
"CC(C)C[C@@H]1NC(=O)[C@@H](NC(=O)[C@H](CC(N)=O)NC(=O)[C@H](CCC(N)=O)NC(=O)[C@@H](N)Cc2ccc(O)cc2)C(C)OC(=O)C[C@@H]2NC(=O)[C@@H]3COC(=O)CC[C@H](NC(=O)[C@H](Cc4c[nH]c5ccccc45)NC2=O)C(=O)N[C@H](C(=O)N[C@@H](Cc2ccc(O)cc2)C(=O)O)CCC(=O)NCCCC[C@H](NC1=O)C(=O)N[C@@H](Cc1ccc(O)cc1)C(=O)N1CCC[C@H]1C(=O)N3 (some centres undefined) [MdnA7] (H-YQN[Thr(3ξ)]LKYPSDWEEY-OH; ester 4-10, 9-12; lactam 6-13)",,1.05 µM
"CC(C)C[C@@H]1NC(=O)[C@@H](NC(=O)[C@H](C)N)C(C)OC(=O)C[C@@H]2NC(=O)[C@@H]3COC(=O)CC[C@H](NC(=O)[C@H](Cc4c[nH]c5ccccc45)NC2=O)C(=O)N[C@H](C(=O)N[C@@H](Cc2ccc(O)cc2)C(=O)O)CCC(=O)NCCCC[C@H](NC1=O)C(=O)N[C@@H](Cc1ccc(O)cc1)C(=O)N1CCC[C@H]1C(=O)N3 (some centres undefined) [MdnA8] (H-A[Thr(3ξ)]LKYPSDWEEY-OH; ester 2-8, 7-10; lactam 4-11)",,21.9 µM
